{"source": "patent US20260007688A1", "about": "“SYNTHETIC ANALOGS OF CANNABINOL (CBN) FOR THE TREATMENT OF AGERELATED NEUROLOGICAL DISORDERS” (priority 2023, published 2026)", "key": {"HT22 cells [1]": {"system": "HT22 cells", "assay": "Ferroptosis assay, RSL3-induced cell death, MTT viability", "assay_type": "cell-based", "settings": "Mus musculus, HT-22, 50 nM RSL3, 16 hours", "procedure": "(§1) HT22 mouse hippocampal nerve cells were cultured in high-glucose Dulbecco's modified Eagle's medium (DMEM) (Invitrogen, Cat #11995065, Carlsbad, CA) supplemented with 10% fetal bovine serum (FBS) (Invitrogen, Carlsbad, CA) and 1% antibiotics including penicillin and streptomycin (Invitrogen Cat #10378016, Carlsbad, CA). Cell cultures were incubated at 37° C. in a fully humidified atmosphere containing 10% CO2.\n(§2) The assay procedure described in Fischer et al. was used. Briefly, HT22 cells were seeded at 3,000 cells/well in 96-well tissue culture plates in DMEM plus 10% FBS and 1% antibiotics. After 24 hours of plating, the cells were pretreated with different concentrations of test compounds or a vehicle control for 1 hour followed by coincubation with 50-100 nM RSL3 or 500 nM erastin to induce the cell death cascade. After 16 hours of treatment, cell viability was measured by the MTT assay. Optical absorbance was measured at 570 nm on a SpectraMax M5 microplate reader. Samples were analyzed in eight to sixteen wells per independent experiment (n=8-16). Results are presented as the percentage of the controls with vehicle alone."}, "MC65 cells": {"system": "MC65 cells", "assay": "Intracellular amyloid toxicity assay", "assay_type": "cell-based", "settings": "Homo sapiens, 72 h, APP-C99 induced, day 3, MTT, read-out: Aβ toxicity EC50", "excerpt": "Accumulation of intracellular amyloid beta peptide (Aβ) is considered by many as being a primary toxic event in AD. The human nerve cell line MC65 conditionally expresses the C99 fragment of the amyloid precursor protein (APP) leading to the accumulation of intracellular AB. The MC65 cells are routinely grown in the presence of tetracycline and, following its removal, the expression of C99 is induced and the cells die within three days because of the accumulation of intracellular, toxic protein aggregates.\nFor the intracellular amyloid toxicity assay the procedure described in Huang et al., “Intracellular amyloid toxicity induces oxytosis/ferroptosis regulated cell death” Cell Death Dis. 11 (10) (2020) 828 was used. Briefly, MC65 cells were regularly grown in high glucose DMEM supplemented with 10% FCS and 2 μg/ml tetracycline. For the assay, cells were dissociated and plated at 1×10^5 cells per well in 24 well tissue culture plates. After overnight cultivation in growth medium, the cells were washed three times with phosphate buffered saline containing calcium and magnesium and then switched to Opti-minimal essential media (Opti-MEM, Invitrogen) in the presence (no induction) or absence (APP-C99 induced) of 2 μg/ml tetracycline in the presence or absence different concentrations of the indicated compounds. At day 3, the control cells in the absence of tetracycline were dead, and cell viability was determined by the MTT assay. Optical absorbance was measured at 570 nm on a SpectraMax M5 microplate reader. Samples were analyzed in three wells per independent experiment (n=3). Results are presented as EC50."}, "HT22 cells [2]": {"system": "HT22 cells", "assay": "Seahorse XF real-time ATP rate assay", "assay_type": "cell-based, mouse", "settings": "5 μM, 16 hours", "procedure": "The assay procedure described in Liang et al., “Cannabinol inhibits oxytosis/ferroptosis by directly targeting mitochondria independently of cannabinoid receptors” Free Radic. Biol. Med. 180 (2022) 33-51 was used. Briefly, ATP production rates were assayed with a XF Real-Time ATP Rate Assay Kit using a Seahorse Xfe96 Extracellular Flux Analyzer (Seahorse Bioscience, North Billerica, MA). Complete Seahorse XF DMEM assay medium was supplemented with 10 mM glucose, 1 mM pyruvate and 2 mM L-glutamine, at pH 7.4. Mitochondrial ETC inhibitors were used at the following concentrations: 1.5 μM oligomycin and 0.5 μM of a 1:1 mixture of rotenone and antimycin A. Analyses were conducted using Wave software and XF Report Generators (Agilent Technologies). The sensor cartridge for the Xfe analyzer was hydrated overnight at 37° C. before the experiment. Data were normalized for total protein/well. Each condition was analyzed in 20-40 wells per independent experiment (n=20-40). FIGS. 12 and 13 provide the results.\nFor HT22 cells, 2,000 cells/well were seeded onto the Seahorse Xfe96 plates under normal culture condition as described above. The next day, cells were treated with test compounds at the desired concentrations and incubated for 16 hours. Immediately before the assay, the culture medium in the plates was replaced with complete Seahorse XF DMEM assay medium. […]"}, "HT22 cells [3]": {"system": "HT22 cells", "assay": "Seahorse XF mitochondrial stress test (OCR)", "assay_type": "cell-based, mouse", "settings": "16 hours, compared with the control cells"}, "HT22 cells [4]": {"system": "HT22 cells", "assay": "Mitochondrial reactive oxygen species measurement (MitoSOX Red)", "assay_type": "cell-based, mouse", "settings": "5 μM compound + 50 nM RSL3", "procedure": "The assay procedure described in Liang et al. was used. Briefly, HT22 cells were seeded onto 96-well black walled plates at a density of 3,000 cells/well in DMEM supplemented with 10% FBS and 1% antibiotics. After the desired treatments, the mitochondrial superoxide ROS were detected with MitoSOX Red reagent (Ex/Em=510/580 nm). Experiments were performed according to the manufacturer's instructions. Fluorescence was measured on a SpectraMax M5 microplate reader. Data were normalized for total protein/well. Each condition was analyzed in eight wells per independent experiment (n=8). Results are presented as the percentage of the controls with vehicle alone. Results were verified by live-cell imaging under a fluorescence microscope. FIG. 14 provides the results."}, "HT22 cells [5]": {"system": "HT22 cells", "assay": "Oxytosis assay, glutamate-induced cell death, MTT viability", "assay_type": "cell-based", "settings": "Mus musculus, HT-22, 5 mM glutamate, 16 hours", "procedure": "as §1\nThe assay procedure described in Fischer et al., “Old age-associated phenotypic screening for Alzheimer's disease drug candidates identifies sterubin as a potent neuroprotective compound from Yerba santa” Redox Biol. 21 (2019) 101089 was used. Briefly, HT22 cells were seeded at 3,000 cells/well in 96-well tissue culture plates in DMEM plus 10% FBS and 1% antibiotics. After 24 hours of plating, the cells were pretreated with different concentrations of the test compounds or a vehicle control for 1 hour followed by coincubation with 5 mM glutamate to initiate the cell death cascade. After 16 hours of treatment, cell viability was measured by the 3-(4,5-dimethylthiazol-2-yl)-2,5-diphenyltetrazolium bromide (MTT) assay. Optical absorbance was measured at 570 nm on a SpectraMax M5 microplate reader. Samples were analyzed in eight to sixteen wells per independent experiment (n=8-16). Results are presented as the percentage of the controls with vehicle alone."}, "HT22 cells [6]": {"system": "HT22 cells", "assay": "Lipid peroxidation measurement (C11-BODIPY)", "assay_type": "cell-based, mouse", "settings": "compound + RSL3, 16 hours, p<0.0001", "procedure": "The assay procedures were adapted from the procedures disclosed by Soriano-Castell et al., “Profiling the chemical nature of anti-oxytotic/ferroptotic compounds with phenotypic screening” Free Radic. Biol. Med. 177 (2021) 313-325 and Liang et al. “Cannabinol inhibits oxytosis/ferroptosis by directly targeting mitochondria independently of cannabinoid receptors” Free Radic. Biol. Med. 180 (2022) 33-51. Briefly, HT22 cells were seeded onto 96-well black walled plates at a density of 3,000 cells/well in DMEM supplemented with 10% FBS and 1% antibiotics. After the desired treatments for 16 hours, cells were labeled with 2.5 μM C11-BODIPY 581/591 (oxidized form Ex/Em=488/520 nm) at 37° C. for 2 hours. Experiments were performed according to the manufacturer's instructions. Fluorescence was measured on a SpectraMax M5 microplate reader. Data were normalized for total protein/well. Each condition was analyzed in eight wells per independent experiment (n=8). Results were verified by live-cell imaging under a fluorescence microscope."}, "Drosophila melanogaster": {"system": "Drosophila melanogaster", "assay": "Drosophila mild traumatic brain injury (mTBI) model", "assay_type": "in vivo", "settings": "3.0 μM in food, 3 weeks after mTBI (10×); vehicle 70.2%"}, "HT22 cells [7]": {"system": "HT22 cells", "assay": "Ferroptosis assay, erastin-induced cell death, MTT viability", "assay_type": "cell-based", "settings": "Mus musculus, HT-22, 500 nM erastin, 16 hours", "procedure": "as §1, §2"}, "HT22 cells [8]": {"system": "HT22 cells", "assay": "Microscopic imaging of cell morphology after RSL3", "assay_type": "cell-based, mouse", "settings": "5 μM compound + 50 nM RSL3, 16 hours", "excerpt": "Micrographs show the representative morphological characteristics of the cell cultures under a given condition of 8 experimental replicates. Scale bar=200 μm.\nMicroscopy. Brightfield, phase contrast, and fluorescence microscopic images were acquired on an IX51 inverted microscope (Olympus Corporation, Tokyo, Japan) with an INFINITY3 monochrome CCD camera (Teledyne Lumenera, Ontario, Canada). Super-resolution microscopic images were acquired on a Zeiss LSM 880 rear port laser scanning confocal and Airyscan FAST microscope (Carl-Zeiss, Oberkochen, Germany). Image processing and analysis were performed with microscope software packages ZEN Black and ImageJ/Fiji."}}, "note": "pEC50: −log10 of the molar value.", "data": [{"smiles": "CCCCCc1cc(O)c2c(c1)OC(C)(C)c1ccc(C)cc1-2", "note": "[CBN, Cannabinol]", "values": [{"measurement": "pEC50", "setting": "HT22 cells [1]", "value": 6.16}, {"measurement": "pEC50", "setting": "MC65 cells", "value": 7.85}, {"measurement": "total ATP production rate", "setting": "HT22 cells [2]; compared to the control", "value": "slightly but significantly decreased"}, {"measurement": "increase in the OXPHOS contribution to ATP production", "setting": "HT22 cells [2]; relative to the control", "value": "approximately 15%"}, {"measurement": "maximal and spare mitochondrial respiration (OCR)", "setting": "HT22 cells [3]", "value": "partial but significant decrease"}, {"measurement": "RSL3-induced mtROS production", "setting": "HT22 cells [4]", "value": "significantly suppressed"}, {"measurement": "pEC50", "setting": "HT22 cells [5]", "value": 5.72}, {"measurement": "RSL3-induced increase in intracellular LPO", "setting": "HT22 cells [6]", "value": "significantly suppressed"}, {"measurement": "3-week mortality index (MI), percentage of dead flies", "setting": "Drosophila melanogaster", "value": 60.5, "unit": "%"}, {"measurement": "pEC50", "setting": "HT22 cells [7]", "value": 5.63}, {"measurement": "prevention of RSL3-induced morphological deteriorations", "setting": "HT22 cells [8]", "value": "effectively prevented"}]}]}
